Reference: patent publication US4382871A, “Detergent compositions” (Lever Brothers Company, priority 1980, dated 1983)

Key:
[1] = acute oral toxicity (LD50) in Webster mice; type: in vivo; conditions: mouse, in vivo, read-out: LD50 (dosage which is lethal for 50% of the mice)
Description: (§1) As stated above, a particular advantage of the builders of the present invention over the salts of unsubstituted oxydiacetic acid, is their lower toxicity. For example, using Webster mice, the acute oral toxicity data, (LD50), i.e., the dosage in grams per kilogram of body weight which is lethal for 50% of the mice, for two of the preferred embodiments compared to disodium oxydiacetate are as follows: […]

Webster mice = assay: acute oral toxicity (LD50) in Webster mice; type: in vivo; conditions: from LD50
Description: as §1

[2] = if accidentally swallowed; cited from earlier work

Compound	LD50 [1] [mg/kg]	Remarks (toxicity classification) (Webster mice)	emetic properties [2]
CC(OCC(=O)[O-])C(=O)[O-].[Na+].[Na+] (stereo not shown)	> 5000	non-toxic	–
trisodium polyphosphate	–	–	emetic properties
O=C([O-])COCC(=O)[O-].[Na+].[Na+] [reference compound]	2850	slightly toxic	–
CC(OC(C)C(=O)[O-])C(=O)[O-].[Na+].[Na+] (stereo not shown)	> 5000	non-toxic	–
